Test results published in ChEMBL document CHEMBL3885861, “Open TG-GATES”.

Organism: Rattus norvegicus
Assay: Open TG-GATES - Regimen: Single
Format: toxicity, organism-based, Sprague-Dawley
Design: regimen Single, gender Male, age 6 weeks
Settings: in vivo, po, 1 mg/kg, route gavage, dose level Low; for Bas / Eos / Fbg / Hb / Ht / Lym / MCHC / MCV / Mono / Neu / Plat / RBC / Ret / WBC: tissue Blood; for KIDNEY_TOTAL: tissue Kidney; for LIVER: tissue Liver; for ALT / AST / BUN / CRE / Ca / Cl / DBIL / GLC / IP / K / LDH / Na / PL / RALB / TBIL / TC / TP / gamma-GTP: tissue Plasma

## C[C@@H]1C[C@H]2[C@@H]3CCC4=CC(=O)C=C[C@]4(C)[C@@]3(F)[C@@H](O)C[C@]2(C)[C@@]1(O)C(=O)CO [DEXAMETHASONE]
3 h
  Bas: 0%
  Eos: 0.4%
  Fbg: 254 mg/dL
  Hb: 13.2 g/dL
  Ht: 40.3%
  Lym: 67%
  MCHC: 32.7%
  MCV: 64 fL
  Mono: 3.4%
  Neu: 29.2%
  Plat: 115.4 x10_4/uL
  RBC: 630 x10_4/ul
  Ret: 8.3%
  WBC: 45.1 x10_2/uL
  KIDNEY_TOTAL: 0.7 g
  LIVER: 11.2 g
  ALT: 43.2 IU/L
  AST: 72 IU/L
  BUN: 17 mg/dL
  CRE: 0.4 mg/dL
  Ca: 11.2 mg/dL
  Cl: 102.2 meq/L
  DBIL: 0.01 mg/dL
  GLC: 192.6 mg/dL
  IP: 12 mg/dL
  K: 4 meq/L
  LDH: 100.6 IU/L
  Na: 142.2 meq/L
  PL: 172 mg/dL
  RALB: 4.3 g/dL
  TBIL: 0.042 mg/dL
  TC: 102 mg/dL
  TP: 6.2 g/dL
  gamma-GTP: 1 IU/L
6 h
  TERMINAL_BW: 204.4 g
  Bas: 0%
  Eos: 0.2%
  Fbg: 250.2 mg/dL
  Hb: 13.1 g/dL
  Ht: 40.4%
  Lym: 59%
  MCHC: 32.6%
  MCV: 64.5 fL
  Mono: 3.2%
  Neu: 37.2%
  Plat: 113.5 x10_4/uL
  RBC: 627 x10_4/ul
  Ret: 6.5%
  WBC: 28.2 x10_2/uL
  KIDNEY_TOTAL: 0.5 g
  LIVER: 10.8 g
  ALT: 39 IU/L
  AST: 73.8 IU/L
  BUN: 17.4 mg/dL
  CRE: 0.4 mg/dL
  Ca: 10.9 mg/dL
  Cl: 102.8 meq/L
  DBIL: 0.008 mg/dL
  GLC: 215.8 mg/dL
  IP: 8.2 mg/dL
  K: 4.3 meq/L
  LDH: 91.4 IU/L
  Na: 138.6 meq/L
  PL: 179.4 mg/dL
  RALB: 4.4 g/dL
  TBIL: 0.038 mg/dL
  TC: 124.4 mg/dL
  TP: 6.3 g/dL
  gamma-GTP: 0 IU/L
9 h
  TERMINAL_BW: 198.1 g
  Bas: 0%
  Eos: 0.2%
  Fbg: 263.4 mg/dL
  Hb: 13.4 g/dL
  Ht: 40.9%
  Lym: 55.8%
  MCHC: 32.7%
  MCV: 64.7 fL
  Mono: 1.4%
  Neu: 42.4%
  Plat: 127.4 x10_4/uL
  RBC: 633 x10_4/ul
  Ret: 7.3%
  WBC: 28.3 x10_2/uL
  KIDNEY_TOTAL: 0.5 g
  LIVER: 10.7 g
  ALT: 38.8 IU/L
  AST: 76.6 IU/L
  BUN: 19.2 mg/dL
  CRE: 0.4 mg/dL
  Ca: 10.6 mg/dL
  Cl: 102 meq/L
  DBIL: 0.006 mg/dL
  GLC: 217 mg/dL
  IP: 7.8 mg/dL
  K: 4.4 meq/L
  LDH: 96.2 IU/L
  Na: 138 meq/L
  PL: 181.6 mg/dL
  RALB: 4.7 g/dL
  TBIL: 0.038 mg/dL
  TC: 126 mg/dL
  TP: 6.8 g/dL
  gamma-GTP: 0.8 IU/L
24 h
  TERMINAL_BW: 210.9 g
  Bas: 0%
  Eos: 0.8%
  Fbg: 239.6 mg/dL
  Hb: 13.8 g/dL
  Ht: 41.6%
  Lym: 61.4%
  MCHC: 33.1%
  MCV: 64.9 fL
  Mono: 4.8%
  Neu: 33%
  Plat: 122.7 x10_4/uL
  RBC: 642.2 x10_4/ul
  Ret: 5.8%
  WBC: 73.8 x10_2/uL
  KIDNEY_TOTAL: 0.5 g
  LIVER: 12 g
  ALT: 35.4 IU/L
  AST: 79.8 IU/L
  BUN: 16.4 mg/dL
  CRE: 0.4 mg/dL
  Ca: 10.9 mg/dL
  Cl: 99.8 meq/L
  DBIL: 0.016 mg/dL
  GLC: 191.8 mg/dL
  IP: 8 mg/dL
  K: 4.9 meq/L
  LDH: 110.2 IU/L
  Na: 139.2 meq/L
  PL: 219.2 mg/dL
  RALB: 4.6 g/dL
  TBIL: 0.046 mg/dL
  TC: 104.2 mg/dL
  TP: 6.4 g/dL
  gamma-GTP: 0 IU/L
